Measured values: article PMC10452110, “Indole-3-Acetamido-Polyamines as Antimicrobial Agents and Antibiotic Adjuvants” (Biomolecules, 2023)
In brackets after ≈: the same amount, converted by molar mass. Where two headings read alike, the source gives them in different places.

Key:
[1] = test system: Candida albicans (ATCC 90028); assay: Intrinsic antifungal activity (MIC) against C. albicans; format: cell-based; details: ATCC90028, C. albicans ATCC 90028, mean (n = 2), read-out: MIC C. a
Method: (§1) The susceptibility of bacterial strains Staphylococcus aureus (ATCC 25923), Escherichia coli (ATCC 25922) and Pseudomonas aeruginosa (ATCC 27853) to antibiotics and compounds was determined using previously reported protocols. Additional antimicrobial evaluation against MRSA (ATCC 43300), Klebsiella pneumoniae (ATCC 700603), Acinetobacter baumannii (ATCC 19606), Candida albicans (ATCC 90028) and Cryptococcus neoformans (ATCC 208821) was undertaken at the Community for Open Antimicrobial Drug Discovery at The University of Queensland (Australia) according to their standard protocols, as reported previously.

[2] = test system: Escherichia coli (ATCC 25922); assay: Intrinsic antimicrobial activity (MIC) against E. coli; format: cell-based; details: ATCC25922, E. coli ATCC 25922, mean (n = 3), read-out: MIC E. c
Method: as §1

[3] = test system: Cryptococcus neoformans (ATCC 208821); assay: Intrinsic antifungal activity (MIC) against C. neoformans; format: cell-based; details: ATCC208821, C. neoformans ATCC 208821, mean (n = 2), read-out: MIC C. n
Method: as §1

MRSA (ATCC 43300) = assay: Intrinsic antimicrobial activity (MIC) against MRSA; format: cell-based; details: Staphylococcus aureus, read-out: MIC MRSA
Method: as §1

[4] = test system: Pseudomonas aeruginosa (ATCC 27853); assay: Intrinsic antimicrobial activity (MIC) against P. aeruginosa; format: cell-based; details: ATCC27853, P. aeruginosa ATCC 27853, mean (n = 3), read-out: MIC P. a
Method: as §1

E. coli ATCC 25922 = assay: Enhancement of erythromycin action against E. coli; format: cell-based, Escherichia coli; details: erythromycin at 10.9 µM
Method: (§2) Antibiotic enhancer concentrations were determined using previously reported protocols.

P. aeruginosa ATCC 27853 = assay: Enhancement of doxycycline action against P. aeruginosa; format: cell-based, Pseudomonas aeruginosa; details: doxycycline at 4.5 µM
Method: as §2

Cytotoxicity assay = format: cell-based; details: human; HEK293 cells; mean (n = 2); read-out: Cytotoxicity: concentration of compound at 50% cytotoxicity (IC50)
Method: Cytotoxicity assays were conducted using the protocols previously reported.

human red blood cells = assay: Hemolytic assay; format: cell-based; details: mean (n = 2)
Method: Hemolysis assays were conducted using the protocols previously reported.

[5] = test system: Staphylococcus aureus (ATCC 25923); assay: Intrinsic antimicrobial activity (MIC) against S. aureus; format: cell-based; details: ATCC25923, S. aureus ATCC 25923, mean (n = 3), read-out: MIC S. a
Method: as §1

Compound | MIC [1] [µM] | MIC [2] [µM] | MIC [3] [µM] | MIC (MRSA (ATCC 43300); MRSA ATCC 43300, mean (n = 2)) [µM] | MIC [4] [µM] | Eryth/E. c: concentration required to restore erythromycin activity (combination MIC) (E. coli ATCC 25922) [µM] | Dox/P. a fold change (ratio between intrinsic MIC of the test compound and combination MIC) (P. aeruginosa ATCC 27853) [fold] | Dox/P. a: concentration required to restore doxycycline activity (combination MIC) (P. aeruginosa ATCC 27853) [µM] | IC50 (Cytotoxicity assay) [µM] | Hemolysis: concentration of compound at 10% hemolytic activity (HC10) (human red blood cells) [µM] | MIC [5] [µM] | MIC (MRSA (ATCC 43300)) [µM]
O=C(Cc1c[nH]c2ccccc12)NCCCNCCCCCCNCCCNC(=O)Cc1c[nH]c2ccccc12.O=C(O)C(F)(F)F.O=C(O)C(F)(F)F [Compound 14b, N^1,N^6-Bis(3-(2-(1H-indol-3-yl)acetamido)propyl)hexane-1,6-diaminium 2,2,2-trifluoroacetate] | > 41 | > 129 | < 0.2 | < 0.2 | > 259 | > 259 | > 2 | 129 | > 41 | >41 | 129 | 
Cc1ccc2[nH]cc(CC(=O)NCCCNCCCCCCCCNCCCNC(=O)Cc3c[nH]c4ccc(C)cc34)c2c1.O=C(O)C(F)(F)F.O=C(O)C(F)(F)F [Compound 17d, N^1,N^8-Bis(3-(2-(5-methyl-1H-indol-3-yl)acetamido)propyl)octane-1,8-diaminium 2,2,2-trifluoroacetate] | 2.41 | 241 | ≤ 0.3 | ≤ 0.3 | > 241 | 121 | > 1 | 241 | > 39 | 0.42 | 15.1 | 
O=C(Cc1c[nH]c2c(F)cccc12)NCCCNCCCCCCCNCCCNC(=O)Cc1c[nH]c2c(F)cccc12.O=C(O)C(F)(F)F.O=C(O)C(F)(F)F [Compound 18c, N^1,N^7-Bis(3-(2-(7-fluoro-1H-indol-3-yl)acetamido)propyl)heptane-1,7-diaminium 2,2,2-trifluoroacetate] | 38.9 | > 243 | ≤ 0.3 | ≤ 0.3 | > 243 | 243 | > 1 | 243 | > 39 | 1.94 | 30.4 | 
O=C(Cc1c[nH]c2c(F)cccc12)NCCCNCCCCCCCCNCCCNC(=O)Cc1c[nH]c2c(F)cccc12.O=C(O)C(F)(F)F.O=C(O)C(F)(F)F [Compound 18d, N^1,N^8-Bis(3-(2-(7-fluoro-1H-indol-3-yl)acetamido)propyl)octane-1,8-diaminium 2,2,2-trifluoroacetate] | > 38 | > 239 | < 0.2 | < 0.2 | > 239 | > 239 | 1 | > 239 | > 38 | >38 | 29.9 | 
O=C(Cc1c[nH]c2c(F)cccc12)NCCCNCCCCCCCCCCNCCCNC(=O)Cc1c[nH]c2c(F)cccc12.O=C(O)C(F)(F)F.O=C(O)C(F)(F)F [Compound 18e, N^1,N^10-Bis(3-(2-(7-fluoro-1H-indol-3-yl)acetamido)propyl)decane-1,10-diaminium 2,2,2-trifluoroacetate] | 2.31 | 116 | ≤ 0.29 | ≤ 0.29 | > 231 | 57.8 | 1 | 231 | > 37 | 1.49 | 7.23 | 
O=C(Cc1c[nH]c2c(F)cccc12)NCCCNCCCCCCCCCCCCNCCCNC(=O)Cc1c[nH]c2c(F)cccc12.O=C(O)C(F)(F)F.O=C(O)C(F)(F)F [Compound 18f, N^1,N^12-Bis(3-(2-(7-fluoro-1H-indol-3-yl)acetamido)propyl)dodecane-1,12-diaminium 2,2,2-trifluoroacetate] | ≤ 0.28 | 28 | ≤ 0.28 | ≤ 0.28 | 224 | 14.0 | 1 | 224 | 27.2 | ≤0.28 | 7 | 
COc1cccc2c(CC(=O)NCCCNCCCCNCCCNC(=O)Cc3c[nH]c4c(OC)cccc34)c[nH]c12.O=C(O)C(F)(F)F.O=C(O)C(F)(F)F [Compound 19a, N^1,N^4-Bis(3-(2-(7-methoxy-1H-indol-3-yl)acetamido)propyl)butane-1,4-diaminium 2,2,2-trifluoroacetate] | > 40 | > 249 | 19.9 | 19.9 | > 249 | > 249 | 1 | > 249 | > 40 | >40 | 124 | 
COc1cccc2c(CC(=O)NCCCNCCCCCCNCCCNC(=O)Cc3c[nH]c4c(OC)cccc34)c[nH]c12.O=C(O)C(F)(F)F.O=C(O)C(F)(F)F [Compound 19b, N^1,N^6-Bis(3-(2-(7-methoxy-1H-indol-3-yl)acetamido)propyl)hexane-1,6-diaminium 2,2,2-trifluoroacetate] | > 38 | 240 | < 0.2 | < 0.2 | > 240 | 240 | 1 | > 240 | > 38 |  | 30 | 
COc1cccc2c(CC(=O)NCCCNCCCCCCCCCCNCCCNC(=O)Cc3c[nH]c4c(OC)cccc34)c[nH]c12.O=C(O)C(F)(F)F.O=C(O)C(F)(F)F [Compound 19e, N^1,N^10-Bis(3-(2-(7-methoxy-1H-indol-3-yl)acetamido)propyl)decane-1,10-diaminium 2,2,2-trifluoroacetate] | > 36 | > 225 | < 0.2 | < 0.2 | > 225 | 225 | > 1 | 225 | > 36 |  | 28.1 | 
Cc1cccc2c(CC(=O)NCCCNCCCCCCCCNCCCNC(=O)Cc3c[nH]c4c(C)cccc34)c[nH]c12.O=C(O)C(F)(F)F.O=C(O)C(F)(F)F [Compound 20d, N^1,N^8-Bis(3-(2-(7-methyl-1H-indol-3-yl)acetamido)propyl)octane-1,8-diaminium 2,2,2-trifluoroacetate] | 38.6 | 241 | < 0.2 | < 0.2 | > 241 | 241 | 1 | > 241 | > 39 |  | 30.2 | 
O=C(N[C@H](CO)[C@H](O)c1ccc([N+](=O)[O-])cc1)C(Cl)Cl [chloramphenicol, reference compound] |  |  |  |  |  |  |  |  |  |  | 1.5 to 3 (≈ 0.485 to 0.969 µg/mL) | 
OC(Cn1cncn1)(Cn1cncn1)c1ccc(F)cc1F [fluconazole, reference compound] | 0.4 (≈ 0.123 µg/mL) |  | 26 (≈ 7.96 µg/mL) |  |  |  |  |  |  |  |  | 
[H]/N=C(/N)N[C@H]1[C@H](O)[C@@H](O)[C@H](O[C@@H]2O[C@@H](C)[C@](O)(C=O)[C@H]2O[C@@H]2O[C@@H](CO)[C@H](O)[C@@H](O)[C@@H]2NC)[C@@H](N/C(N)=N\[H])[C@@H]1O [streptomycin, reference compound] |  | 21.5 (≈ 12.5 µg/mL) |  |  | 21.5 (≈ 12.5 µg/mL) |  |  |  |  |  | 21.5 (≈ 12.5 µg/mL) | 
CC/C(=C(\c1ccccc1)c1ccc(OCCN(C)C)cc1)c1ccccc1 [tamoxifen, reference compound] |  |  |  |  |  |  |  |  | 24 |  |  | 
CN[C@H](CC(C)C)C(=O)N[C@H]1C(=O)N[C@@H](CC(N)=O)C(=O)N[C@H]2C(=O)N[C@H]3C(=O)N[C@H](C(=O)N[C@H](C(=O)O)c4cc(O)cc(O)c4-c4cc3ccc4O)[C@H](O)c3ccc(c(Cl)c3)Oc3cc2cc(c3O[C@@H]2O[C@H](CO)[C@@H](O)[C@H](O)[C@H]2O[C@H]2C[C@](C)(N)[C@H](O)[C@H](C)O2)Oc2ccc(cc2Cl)[C@H]1O [vancomycin, reference compound] |  |  |  |  |  |  |  |  |  |  |  | 0.7 (≈ 1.01 µg/mL)
